Tests used:
[1] = tested on: caspase-3/7 in H460 cells; test: Caspase-3/7 activation by flow cytometry, H460; format: cell-based, human; details: IC90
Procedure: To explain the type of cell death that cancer cells undergo after treatment with PCH-1, the ability of the compound to activate caspases 3–7 was determined by flow cytometry. […] The most pronounced activation of caspase 3 occurred equally in A-549 and H226 cell lines after 48 h of treatment and was sevenfold greater than that in the vehicle.
Cells were seeded onto tissue culture plates and allowed to attach for 24 h. Next, the cells were treated with PCH-1 or Etoposide at IC90 concentration for 6, 24, and 48 h. After incubation, the cells were harvested by trypsinization, rinsed twice with PBS, and stained with Annexin V Alexa Fluor™ 488 conjugate (Thermo Fisher, #A13201) for apoptosis assay and with CellEvent™ Caspase-3/7 Green Flow Cytometry Assay Kit (Thermo Fisher, #C10427) for caspase-3/7 activation according to the manufacturer’s protocols. The analysis was performed with Guava EasyCyte 8 cell sorter (Merck Millipore) and FlowJo software v10. Each experiment was repeated independently three times.

[2] = tested on: HEK293 cells; test: MTT cell viability assay, HEK293; format: cell-based, human; details: Homo sapiens, HEK293, 72 h, nonmalignant cells, read-out: IC50 ± SD, growth inhibition, HEK293
Procedure: All the synthesized chalcone-derived pyrazoles were evaluated for their antiproliferative activity against three human non-small cell lung cancer cell lines: A-549, H226, and H460, and a nonmalignant human embryonic kidney cell line HEK293. Cisplatin and 5-fluorouracil (5-FU) were used as a reference. Cells were exposed to a range of PCH concentrations (0.5–100 µM) for 72 h and analyzed by 3-(4,5-dimethylthiazol-2-yl)-2,5-diphenyl-2H-tetrazolium bromide (MTT) assay. The results of the studies are expressed as the IC50 concentration that inhibits 50% growth of cells. […] Following treatment with PCH-1, the viability of all the tested cancer cell lines decreased in a concentration-dependent manner.
The cell viability assay was performed for A-549, H226, H460, and HEK293 cells after treatment with the test compounds by using the 3-(4,5-dimethylthiazol-2-yl)-2,5-diphenyltetrazolium bromide (MTT, Sigma-Aldrich) assay. Briefly, cells were seeded onto 96-well culture plates for attachment. After 24 h, triplicate wells were treated with DMSO (1%) and the agents. After 72 h of incubation at 37 °C in 5% CO2, the MTT solution (0.4 mg/ml) was added to each well. After 2–4 h of incubation, the medium was removed, and the formazan crystals were dissolved in 100 μl of DMSO. The absorption was measured at 450 nm with an ASYS UVM340 microplate reader (Biochrom Ltd.). The 50% inhibitory concentration (IC50) was defined as the concentration that reduced the absorbance of the DMSO-treated wells by 50% of the vehicle. The IC50 values were generated from GraphPad Prism 9 software by plotting the survival curve as a function of dose from 3 independent experiments.

[3] = tested on: A-549, H226, and H460 cells; test: Colony formation assay; format: cell-based, human; details: 1, 5, 10 µM for 24 h, then 9 days culture
Procedure: Cells were seeded onto 6-well plates (500 cells/well) and allowed to attach for 24 h in a fresh RPMI medium. Next, the cells were pretreated with DMSO (1%) solution of the examined compound (at the concentrations of 1, 5, and 10 µM) for 24 h. The medium containing compound was then changed, and the cells were cultured for additional 9 days. After incubation, the cells were washed twice with phosphate-buffered saline (PBS), fixed with 100% methanol for 30 min, and stained with 0.5% crystal violet for 15 min. The colonies were photographed and counted by ImageJ software.

[4] = tested on: tubulin; test: HTS-tubulin polymerization assay; format: biochemical; details: 120-min kinetic reaction, absorbance 340 nm, vs vehicle
Procedure: To further evaluate whether the tubulin–microtubule system was the target site of PCH-1, in vitro microtubule polymerization assays were performed using the microtubule protein with Paclitaxel and Vincristine as a reference. Paclitaxel and Vincristine are antimitotic drugs that have been commonly used in conventional chemotherapy for decades. In 1979, it was shown that Paclitaxel accelerates the initiation of tubulin fiber polymerization and stabilizes the formed tubulin fibers in vitro, even in the absence of GTP or MAP in the solution[30]. Vincristine, on the other hand, binds to tubulin and inhibits its polymerization.
The assay was performed according to the manufacturer’s instructions. Briefly, compounds were diluted in DMSO to a concentration of 2 mM and then in GTB buffer to a concentration of 50 µM. In the wells of a 96-well plate (UV transparent, half surface wells) previously heated to 37 °C, 10 µl of dilutions of the test compounds were placed in duplicate. The plate was incubated for 2 min at 37 °C, and 100 µl of freshly prepared tubulin solution (4 mg/ml) in GTB-GTP buffer was then added. The plate was immediately placed in a Tecan SPARK 10 M plate reader, and the reaction kinetics were measured with the following settings: absorbance reading: 340 nm, 37 °C, interval: 45 s, number of cycles: 160.

[5] = tested on: A-549 cells; test: Intracellular ROS measurement (H2DCFDA, flow cytometry); format: cell-based, human
Source text: The generation of intracellular reactive oxygen species (ROS) causes an imbalance of cellular redox homeostasis, followed by damage of cellular components and cell death. Therefore, compounds with the ability to produce high levels of ROS and/or inhibit antioxidant processes are often used in anticancer therapies. In the present study, the effect of PCH-1 on ROS generation in A-549 cells was investigated by flow cytometry. As an indicator of ROS generation, the fluorescent probe 2ʹ,7ʹ-dichlorodihydrofluorescein diacetate (H2DCFDA) was used, which undergoes oxidation by ROS to form a highly fluorescent compound 2ʹ,7ʹ-dichlorofluorescein (DCF). As shown in Supplementary Fig. S6 in Supplementary Information, compound PCH-1 induced a massive amount of ROS in A-549 cells in a time-dependent manner. […] Moreover, the induction of ROS was equally high for PCH-1 and the reference compound H2O2 in all the tested time points.
For determination the ROS generation, cells were treated with IC90 of PCH-1, H2O2, or 1% DMSO for 3, 6, and 24 h. Next, a 1 µM CM-H2DCFDA (#C6827; Thermo-Fisher) probe was added to the cells in each plate 30 min before the end of the drug treatment. After incubation cells were collected by trypsinization, stained with 7-Aminoactinomycin D (7-AAD, Sigma-Aldrich), and measured. The analysis was performed with Guava EasyCyte 8 cell sorter (Merck Millipore) and FlowJo software v10. Each experiment was repeated independently three times.

## COc1ccc(C2CC(c3cc4c(cc3OC)OCO4)=NN2C(C)=O)cc1 (centres unmarked) [PCH-1, 1-[3-(6-methoxy-2H-1,3-benzodioxol-5-yl)-5-(4-methoxyphenyl)-4,5-dihydro-1H-pyrazol-1-yl]ethan-1-one]
[1]; 6 h
  caspase-3/7 activation, increase compared to control, H460: 3.15 fold
[1]; later exposure
  cells with activated caspase 3/7 vs control, H460: remaining approximately constant
[2]
  IC50: 20.9 ± 2.34 µM
[3]
  number of colonies: reduced the number of colonies in all the tested cell lines in a dose-dependent manner
[4]
  effect on tubulin polymerization kinetics: remarkably reduced the total mass of tubulin polymer
[5]; A-549, IC90, 3 h
  increase of ROS towards vehicle control: 15%
[5]; A-549, IC90, 6 h
  increase of ROS towards vehicle control: 56.9%
[5]; A-549, IC90, 24 h
  increase of ROS towards vehicle control: 68.1%
